How the values were obtained:
Assay in all cases: relative viability (nuclei count vs DMSO), 5 days (fraction); higher = more cells survive
Adavosertib + Trametinib = compound: C=CCn1c(=O)c2cnc(Nc3ccc(N4CCN(C)CC4)cc3)nc2n1-c1cccc(C(C)(C)O)n1 [Adavosertib] + CC(=O)Nc1cccc(-n2c(=O)n(C3CC3)c(=O)c3c(Nc4ccc(I)cc4F)n(C)c(=O)c(C)c32)c1 [Trametinib] (partner 0.02 µM)
In short: (§1)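 Five library-drug doses in √10 steps were combined with a fixed anchor-drug dose, or a single drug was given alone, by pin tool to lung cancer cell lines in 1536-well plates the day after seeding. Nuclei were stained and counted after 5 days. Relative viability is the nuclei count in treated wells over that in vehicle wells, taken as the median of duplicate plates.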

Adavosertib + Luminespib = compound: C=CCn1c(=O)c2cnc(Nc3ccc(N4CCN(C)CC4)cc3)nc2n1-c1cccc(C(C)(C)O)n1 [Adavosertib] + CCNC(=O)c1noc(-c2cc(C(C)C)c(O)cc2O)c1-c1ccc(CN2CCOCC2)cc1 [Luminespib] (partner 0.01 µM)
In short: as §1

Nelarabine + Pictilisib = compound: COc1nc(N)nc2c1ncn2[C@@H]1O[C@H](CO)[C@@H](O)[C@@H]1O [Nelarabine] + CS(=O)(=O)N1CCN(Cc2cc3nc(-c4cccc5[nH]ncc45)nc(N4CCOCC4)c3s2)CC1 [Pictilisib] (partner 1 µM)
In short: as §1

Nelarabine + Olaparib = compound: COc1nc(N)nc2c1ncn2[C@@H]1O[C@H](CO)[C@@H](O)[C@@H]1O [Nelarabine] + O=C(c1cc(Cc2n[nH]c(=O)c3ccccc23)ccc1F)N1CCN(C(=O)C2CC2)CC1 [Olaparib] (partner 8 µM)
In short: as §1

Cell Line	relative viability (Adavosertib + Trametinib; first compound 0.01 µM)	relative viability (Adavosertib + Trametinib; first compound 0.03162 µM)	relative viability (Adavosertib + Trametinib; first compound 0.1 µM)	relative viability (Adavosertib + Trametinib; first compound 0.3162 µM)	relative viability (Adavosertib + Luminespib; first compound 0.01 µM)	relative viability (Adavosertib + Luminespib; first compound 0.03162 µM)	relative viability (Adavosertib + Luminespib; first compound 0.1 µM)	relative viability (Adavosertib + Luminespib; first compound 0.3162 µM)	relative viability (Nelarabine + Pictilisib; first compound 0.01 µM)	relative viability (Nelarabine + Pictilisib; first compound 0.03162 µM)	relative viability (Nelarabine + Pictilisib; first compound 0.1 µM)	relative viability (Nelarabine + Pictilisib; first compound 0.3162 µM)	relative viability (Nelarabine + Pictilisib; first compound 1 µM)	relative viability (Nelarabine + Olaparib; first compound 0.01 µM)	relative viability (Nelarabine + Olaparib; first compound 0.03162 µM)	relative viability (Nelarabine + Olaparib; first compound 0.1 µM)	relative viability (Nelarabine + Olaparib; first compound 0.3162 µM)	relative viability (Nelarabine + Olaparib; first compound 1 µM)
EPLC-272H	0.293	0.309	0.288	0.275	0.225	0.549	0.196	0.182	0.337	0.269	0.315	0.302	0.298	1.13	0.881	0.646	0.842	0.769
NCI-H838	0.488	0.531	0.503	0.582	0.293	0.302	0.313	0.284	0.481	0.331	0.428	0.474	0.438	0.839	0.743	0.849	0.89	0.852
NCI-H661	0.686	0.621	0.68	0.486	0.898	0.924	1.06	0.557	0.345	0.362	0.462	0.388	0.354	0.876	0.709	0.762	0.748	0.796
NCI-H2170	0.946	0.972	0.831	0.745	0.592	0.747	0.626	0.479	0.326	0.253	0.253	0.34	0.316	0.708	0.561	0.61	0.577	0.547
NCI-H1703	–	–	–	–	–	–	–	–	0.248	–	0.237	0.211	0.227	0.547	0.293	0.295	0.557	0.524
